Results from patent US12227539B2, “Mogroside compounds and uses thereof” (Firmenich SA, priority 2019, dated 2025).

What was measured:
[1] = Sensory profile scores (Sweet, Licorice, Lingering) compared with mogroside V
[2] = Tasting of a sample of the purified compound (taste perceived, sweetness relative to sucrose); settings: for sweetness relative to sucrose: approximate
Excerpt: The sweetness intensity perceived was weaker than the sweetness intensity perceived with mogroside V. However, the perception of licorice and lingering profile of isomogroside IVe was weaker than that of mogroside V (see table on following page).

[3] = tasted at 250 ppm in a water base
[4] = tasted at a concentration of 250 ppm
[5] = tasted at 500 ppm in a water base
[6] = tasted at a concentration of 500 ppm in a water base

For `C[C@H](CC[C@@H](O[C@@H]1O[C@H](CO[C@@H]2O[C@H](CO)[C@@H](O)[C@H](O)[C@H]2O)[C@@H](O)[C@H](O)[C@H]1O[C@@H]1O[C@H](CO)[C@@H](O)[C@H](O)[C@H]1O)C(C)(C)O)[C@H]1CC[C@@]2(C)[C@@H]3CC=C4[C@@H](CC[C@H](O[C@@H]5O[C@H](CO[C@@H]6O[C@H](CO)[C@@H](O)[C@H](O)[C@H]6O)[C@@H](O)[C@H](O)[C@H]5O)C4(C)C)[C@]3(C)[C@H](O)C[C@]12C` [Mogroside V, reference compound], the Licorice ([1]; Dosage 250 ppm) was 3.8, the Lingering ([1]; Dosage 250 ppm) was 4.9 and the Sweet ([1]; Dosage 250 ppm) was 6.0. For the same molecule, the Licorice ([1]; Dosage 500 ppm) was 4.2, the Lingering ([1]; Dosage 500 ppm) was 5.2 and the Sweet ([1]; Dosage 500 ppm) was 7.2.

For `C[C@H](CC[C@@H](O[C@@H]1O[C@H](CO[C@@H]2O[C@H](CO)[C@@H](O)[C@H](O)[C@H]2O)[C@@H](O)[C@H](O)[C@H]1O[C@@H]1O[C@H](CO)[C@@H](O[C@@H]2O[C@H](CO)[C@@H](O)[C@H](O)[C@H]2O)[C@H](O)[C@H]1O)C(C)(C)O)[C@H]1CC[C@@]2(C)[C@@H]3CC=C4[C@@H](CC[C@H](O[C@@H]5O[C@H](CO[C@@H]6O[C@H](CO)[C@@H](O)[C@H](O)[C@H]6O)[C@@H](O)[C@H](O)[C@H]5O)C4(C)C)[C@]3(C)[C@H](O)C[C@]12C` [Compound 12a, (1S,4R,9beta,11alpha,24R)-1-{[6-O-(beta-D-glucopyranosyl)-beta-D-glucopyranosyl]oxy}-11,25-dihydroxy-9,10,14-trimethyl-4,9-cyclo-9,10-secocholest-5-en-24-yl beta-D-glucopyranosyl-(1→6)-[beta-D-glucopyranosyl-(1→4)-beta-D-glucopyranosyl-(1→2)]-beta-D-glucopyranoside], the “sweetness relative to sucrose” value [2, 3] was 50-100 times sweeter than sucrose, the taste perceived [2, 4] was “moderate sweet taste” and the “sweetness intensity perceived compared with mogroside V” value ([1]; 250 ppm in a water base) was “weaker”. It also gave a Licorice ([1]; Dosage 250 ppm) of 3.1, a Lingering ([1]; Dosage 250 ppm) of 3.0 and a Sweet ([1]; Dosage 250 ppm) of 3.4.

For `CC(C)(O)[C@@H](CC[C@](C)(O)[C@H]1CC[C@@]2(C)[C@@H]3CC=C4[C@@H](CC[C@H](O[C@@H]5O[C@H](CO[C@@H]6O[C@H](CO)[C@@H](O)[C@H](O)[C@H]6O)[C@@H](O)[C@H](O)[C@H]5O)C4(C)C)[C@]3(C)[C@H](O)C[C@]12C)O[C@@H]1O[C@H](CO[C@@H]2O[C@H](CO)[C@@H](O)[C@H](O)[C@H]2O)[C@@H](O)[C@H](O)[C@H]1O[C@@H]1O[C@H](CO)[C@@H](O)[C@H](O)[C@H]1O` [Compound 7a, (1S,4R,9beta,11alpha,24R)-1-{[6-O-(beta-D-glucopyranosyl)-beta-D-glucopyranosyl]oxy}-11,20,25-trihydroxy-9,10,14-trimethyl-4,9-cyclo-9,10-secocholest-5-en-24-yl beta-D-glucopyranosyl-(1→2)-[beta-D-glucopyranosyl-(1→6)]-beta-D-glucopyranoside], the taste perceived [2, 4] was “No taste”.

For isomogroside IVe, the “perception of licorice and lingering profile compared with mogroside V” value ([1]; 250 ppm in a water base) was “weaker”.

In the case of `C[C@H](CC[C@@H](O[C@@H]1O[C@H](CO[C@@H]2O[C@H](CO)[C@@H](O)[C@H](O)[C@H]2O)[C@@H](O)[C@H](O)[C@H]1O[C@@H]1O[C@H](CO)[C@@H](O)[C@H](O)[C@H]1O)C(C)(C)O)[C@H]1CC[C@@]2(C)[C@@H]3C(O)C=C4[C@@H](CC[C@H](O[C@@H]5O[C@H](CO[C@@H]6O[C@H](CO)[C@@H](O)[C@H](O)[C@H]6O)[C@@H](O)[C@H](O)[C@H]5O)C4(C)C)[C@]3(C)[C@H](O)C[C@]12C` (stereo partly drawn) [Compound 4a, (1S,4R,9beta,11alpha,24R)-1-{[6-O-(beta-D-glucopyranosyl)-beta-D-glucopyranosyl]oxy}-7,11,25-trihydroxy-9,10,14-trimethyl-4,9-cyclo-9,10-secocholest-5-en-24-yl beta-D-glucopyranosyl-(1→2)-[beta-D-glucopyranosyl-(1→6)]-beta-D-glucopyranoside], the “sweetness relative to sucrose” value [2, 5] is reported as 30-60 times sweeter than sucrose and the taste perceived [2, 6] is reported as “weak sweet taste”.

With `C[C@H](CC[C@@H](O[C@@H]1O[C@H](CO)[C@@H](O)[C@H](O)[C@H]1O[C@@H]1O[C@H](CO)[C@@H](O)[C@H](O)[C@H]1O)C(C)(C)O)[C@H]1CC[C@@]2(C)[C@@H]3CC=C4[C@@H](CC[C@H](O[C@@H]5O[C@H](CO[C@@H]6O[C@H](CO)[C@@H](O)[C@H](O)[C@H]6O)[C@@H](O)[C@H](O)[C@H]5O)C4(C)C)[C@]3(C)CC[C@]12C` [Compound 15a, (1S,4S,9beta,24R)-1-{[6-O-(beta-D-glucopyranosyl)-beta-D-glucopyranosyl]oxy}-25-hydroxy-9,10,14-trimethyl-4,9-cyclo-9,10-secocholest-5-en-24-yl 2-O-beta-D-glucopyranosyl-beta-D-glucopyranoside] the “sweetness relative to sucrose” value [2, 5] was 150-300 times sweeter than sucrose, the taste perceived [2, 6] was “strong sweet taste” and the “sensory profile compared with mogroside V” value ([1]; 500 ppm in a water base) was “similar”. It also gave a Licorice ([1]; Dosage 500 ppm) of 6.8, a Lingering ([1]; Dosage 500 ppm) of 6.3 and a Sweet ([1]; Dosage 500 ppm) of 7.0.

In the case of `CC(C)(O)[C@@H](CC[C@](C)(O)[C@H]1CC[C@@]2(C)[C@@H]3CC=C4[C@@H](CC[C@H](O[C@@H]5O[C@H](CO[C@@H]6O[C@H](CO)[C@@H](O)[C@H](O)[C@H]6O)[C@@H](O)[C@H](O)[C@H]5O[C@@H]5O[C@H](CO)[C@@H](O)[C@H](O)[C@H]5O)C4(C)C)[C@]3(C)C(=O)C[C@]12C)O[C@@H]1O[C@H](CO[C@@H]2O[C@H](CO)[C@@H](O)[C@H](O)[C@H]2O)[C@@H](O)[C@H](O)[C@H]1O` [Compound 9a, (1S,4R,9beta,24R)-24-{[6-O-(beta-D-glucopyranosyl)-beta-D-glucopyranosyl]oxy}-20,25-dihydroxy-9,10,14-trimethyl-11-oxo-4,9-cyclo-9,10-secocholest-5-en-1-yl beta-D-glucopyranosyl-(1→2)-[beta-D-glucopyranosyl-(1→6)]-beta-D-glucopyranoside], the taste perceived [2, 4] is reported as “No taste”.

In the case of “(1S,4R,9beta,11alpha,24R)-24-{[6-O-(beta-D-glucopyranosyl)-beta-D-glucopyranosyl]oxy}-11,22,25-trihydroxy-9,10,14-trimethyl-4,9-cyclo-9,10-secocholest-5-en-1-yl 4-O-beta-D-glucopyranosyl-beta-D-glucopyranoside [Compound 3a]”, the taste perceived [2, 4] is reported as “No taste”.

In the case of `C[C@H](CC[C@@H](O[C@@H]1O[C@H](CO[C@@H]2O[C@H](CO[C@@H]3O[C@H](CO)[C@@H](O)[C@H](O)[C@H]3O)[C@@H](O)[C@H](O)[C@H]2O)[C@@H](O)[C@H](O)[C@H]1O[C@@H]1O[C@H](CO)[C@@H](O)[C@H](O)[C@H]1O)C(C)(C)O)[C@H]1CC[C@@]2(C)[C@@H]3CC=C4[C@@H](CC[C@H](O[C@@H]5O[C@H](CO[C@@H]6O[C@H](CO)[C@@H](O)[C@H](O)[C@H]6O)[C@@H](O)[C@H](O)[C@H]5O)C4(C)C)[C@]3(C)[C@H](O)C[C@]12C` [Compound 13a, (1S,4R,9beta,11alpha,24R)-1-{[6-O-(beta-D-glucopyranosyl)-beta-D-glucopyranosyl]oxy}-11,25-dihydroxy-9,10,14-trimethyl-4,9-cyclo-9,10-secocholest-5-en-24-yl beta-D-glucopyranosyl-(1→2)-[beta-D-glucopyranosyl-(1→6)-beta-D-glucopyranosyl-(1→6)]-beta-D-glucopyranoside], the “sweetness relative to sucrose” value [2, 3] is reported as 100-150 times sweeter than sucrose, the taste perceived [2, 4] is reported as “moderate sweet taste” and the “sensory profile compared with mogroside V” value ([1]; 250 ppm in a water base) is reported as “similar”. The Licorice ([1]; Dosage 250 ppm) was 4.4, the Lingering ([1]; Dosage 250 ppm) was 4.2 and the Sweet ([1]; Dosage 250 ppm) was 4.6.

For `C[C@H](C(O)C[C@@H](O[C@@H]1O[C@H](CO[C@@H]2O[C@H](CO)[C@@H](O)[C@H](O)[C@H]2O)[C@@H](O)[C@H](O)[C@H]1O)C(C)(C)O)[C@H]1CC[C@@]2(C)[C@@H]3CC=C4[C@@H](CC[C@H](O[C@@H]5O[C@H](CO)[C@@H](O)[C@H](O)[C@H]5O)C4(C)C)[C@]3(C)[C@@H](O)C[C@]12C` (stereo partly drawn) [Compound 2b, (1S,4R,9beta,11beta,24R)-1-(beta-D-glucopyranosyloxy)-11,22,25-trihydroxy-9,10,14-trimethyl-4,9-cyclo-9,10-secocholest-5-en-24-yl 6-O-beta-D-glucopyranosyl-beta-D-glucopyranoside], the taste perceived [2, 4] was “No taste”.

With `C[C@H](CC[C@@H](O[C@@H]1O[C@H](CO[C@@H]2O[C@H](CO)[C@@H](O)[C@H](O)[C@H]2O)[C@@H](O)[C@H](O)[C@H]1O[C@@H]1O[C@H](CO)[C@@H](O)[C@H](O)[C@H]1O)C(C)(C)O)[C@H]1CC[C@@]2(C)[C@@H]3CC=C4[C@@H](CC[C@H](O[C@@H]5O[C@H](CO[C@@H]6O[C@H](CO)[C@@H](O)[C@H](O)[C@H]6O)[C@@H](O)[C@H](O)[C@H]5O[C@@H]5O[C@H](CO)[C@@H](O)[C@H](O)[C@H]5O)C4(C)C)[C@]3(C)[C@H](O)C[C@]12C` (stereo in doubt) [Compound 14a, (1S,4R,9beta,11beta,24R)-1-{[beta-D-glucopyranosyl-(1→2)-[beta-D-glucopyranosyl-(1→6)]-beta-D-glucopyranosyl]oxy}-11,25-dihydroxy-9,10,14-trimethyl-4,9-cyclo-9,10-secocholest-5-en-24-yl beta-D-glucopyranosyl-(1→2)-[beta-D-glucopyranosyl-(1→6)]-beta-D-glucopyranoside] the taste perceived [2, 4] was “No taste”.

With `C[C@H](C(O)C[C@@H](O[C@@H]1O[C@H](CO[C@@H]2O[C@H](CO)[C@@H](O)[C@H](O)[C@H]2O)[C@@H](O)[C@H](O)[C@H]1O)C(C)(C)O)[C@H]1CC[C@@]2(C)[C@@H]3CC=C4[C@@H](CC[C@H](O[C@@H]5O[C@H](CO)[C@@H](O)[C@H](O)[C@H]5O)C4(C)C)[C@]3(C)[C@H](O)C[C@]12C` (stereo partly drawn) [Compound 2a, (1S,4R,9beta,11alpha,24R)-1-(beta-D-glucopyranosyloxy)-11,22,25-trihydroxy-9,10,14-trimethyl-4,9-cyclo-9,10-secocholest-5-en-24-yl 6-O-beta-D-glucopyranosyl-beta-D-glucopyranoside] the “sweetness relative to sucrose” value [2, 5] was 20-50 times sweeter than sucrose and the taste perceived [2, 6] was “weak sweet taste”.
